Test results as given in the METLIN SMRT retention time set (Domingo-Almenara et al. 2019).

Test: gradient 5% acetonitrile 3 min, to 50% in 2 min, to 85% in 15 min, held 3 min, 100 µL/min
Conditions: column: Zorbax Extend-C18 2.1 x 50 mm; eluents: water / acetonitrile, 0.1% formic acid
How it was run: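 Each retention time is based on an adduct peak selected computationally and verified by manual inspection. Measurements used HPLC–quadrupole time-of-flight mass spectrometry in positive and negative ionization mode on mixtures of ~100 pure standards. Chromatography ran on a Zorbax Extend-C18 column (2.1 × 50 mm, 1.8 μm) at 100 μL/min with water and acetonitrile, each containing 0.1% formic acid, and dead and dwell volumes of 40 μL and 900 μL.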

SMILES	RP-LC retention time [s]
Cc1ccc(CNC(=O)c2nnc(-c3ccc(S(=O)(=O)N4CCOCC4)cc3)o2)cc1	863
O=C(Cn1ccc2sccc2c1=O)NCc1ccc(F)cc1	694
CCOc1nccnc1N1CCC(NS(=O)(=O)C2CC2)C1 (centres undefined)	1230
CCOc1ccc(-c2nc(Cn3nnc(C(=O)NCc4ccc(OC)cc4)c3N)c(C)o2)cc1OC	922
Cc1ccccc1CNC(=O)C1(C)CCCN(C(=O)Nc2ccccc2Br)C1 (centres undefined)	1020
O=C(NCC1CCCO1)c1cc2cccnc2n(Cc2ccccc2F)c1=O (centres undefined)	932
CCc1ccc(CNC(=O)c2cn3ccccc3n2)cc1	757
CN1CCN(C(=O)C2CCN(c3nc4ccc(-c5ccc(F)cc5)nc4s3)CC2)CC1	674
COc1ccc(NC(=O)C2c3cc(OC)c(OC)cc3C(=O)N(C)C2c2cccs2)cc1OC (centres undefined)	744
COc1ccc(NC(=O)/C=C/c2ccc(Cl)cc2)cc1	1090
CCN(CC)C(=O)C1CCN(c2nc3ccc(-c4cccs4)nc3s2)CC1	992
O=c1n(Cc2cc(F)cc(F)c2)nc2ccc(S(=O)(=O)N3CCOCC3)cn12	816
CCc1noc(NC(C)=O)c1-c1ccc(OC)c(S(=O)(=O)NC2CCCCCCC2)c1	939
Cc1nc(-c2cn(C)c3ncccc23)sc1C(=O)NCc1ccc2c(c1)OCO2	826
CN(CC1(C)CCOCC1)C(=O)c1ccc(C#N)cc1	716
Cn1c(=O)c2c(C(=O)NCC3CCN(Cc4cccc(Cl)c4)CC3)cc(=O)n(C)c2n(C)c1=O	632
Cc1ncc2c(n1)C[C@@H]1CC[C@H]2N1C(=O)Nc1ccccc1	636
CC(=O)c1cccc(NC(=O)Cn2cc(-c3ccccc3)c3ncn(C4CC4)c(=O)c32)c1	877

The next lines start with the values.

RP-LC retention time [s]	SMILES
612	CC(C)n1cnc2cc(CNC(=O)c3c(F)cccc3F)ccc21
828	CCOc1ccc(N2C=C(C(=O)N3CCCC3)S(=O)(=O)c3ccccc32)cc1
614	CCC1CN2C=NC(N3CCN(C(=O)NCc4cccc(OC)c4)CC3)=CC2=N1 (centres undefined)
877	O=C(CCn1nnc2cc(-c3noc(COc4ccc(F)cc4)n3)ccc21)N1CCCC1
581	COc1ccc(NC(=O)NCC2(CO)CC2)cc1OC
816	COc1cccc(C(=O)Nc2ccc3c(c2)Sc2ncccc2C(=O)N3C)c1OC
902	COc1ccc(-c2cc3nn(CC(=O)N4CCCC(C)C4)c(=O)n3c(C)n2)cc1 (centres undefined)
836	Cc1noc(-c2ccnc(-n3ncc(C(=O)NC4CCCC4)c3C)c2)n1
671	O=C1CCCC(=O)N1CCS(=O)(=O)N1CCC(c2nnc(-c3ccco3)s2)CC1
608	CCN(CC)CCCNC(=O)C1c2cc(OC)c(OC)cc2C(=O)N2CCc3ccccc3C12 (centres undefined)
606	O=C(O)CCn1nnc2ccccc2c1=O
1010	Cc1cc(OC(C)C(=O)N(Cc2ccco2)C2CCS(=O)(=O)C2)cc(C)c1Cl (centres undefined)
807	COc1ccccc1CNC(=O)C1CCN(S(C)(=O)=O)c2ccccc2O1 (centres undefined)
698	O=C(c1ccc(F)cc1F)N1CCC2(CC1)OCC(C(=O)N1CCCC1)N2C(=O)c1ccccc1 (centres undefined)
862	CC(=O)OCC(=O)[C@@]12N=C(C)O[C@@H]1C[C@H]1[C@@H]3CCC4=CC(=O)C=C[C@]4(C)[C@H]3[C@@H](O)C[C@@]12C
736	COc1ccc(CC(=O)NCC2(c3cccs3)CC2)cc1OC
849	COc1cccc(-n2c(N3CCCC(C(=O)NCc4ccc(C)o4)C3)nc3ccsc3c2=O)c1 (centres undefined)
937	Cn1nc(-c2nc(C3CC3)no2)c2c1CCN(C(=O)c1ccc(OC(F)(F)F)cc1)C2
641	O=C(NCc1cccs1)c1nc(N2CCOCC2)c2ccccc2n1
739	Cc1cccc(N(C)C(=O)Cc2c(C(=O)O)c(C)cn2C)c1
1370	CCCCOc1ccc(-c2nc(C3CC(=O)N(c4ccc(F)c(Cl)c4)C3)no2)cc1 (centres undefined)
532	Cc1nnc2n1CCC(NC(=O)c1ccoc1)CC2 (centres undefined)
818	Cc1ccc(Nc2c(-c3cc(Br)ccc3F)nc3cc(C)ccn23)cc1
735	COc1ccc(-c2cc3nc(C)cc(N4CCN(c5nc(C)cc(C)n5)CC4)n3n2)cc1OC
1020	CCOc1ccc(NC(=O)Cn2cccc(-c3nc(-c4ccc(Br)cc4)no3)c2=O)cc1
854	Cc1ccc(N2CCC(NC(=O)c3ccc(C#N)cc3)C2=O)cc1C (centres undefined)
